In assay [1] the target is T1, HIV Env six-helix bundle (6HB) structure (Human immunodeficiency virus type 1 group M subtype B, UniProt P04579).
T1 construct: H9 cells chronically infected with HIV-1 (H9/HIV-1RF); endogenous in cells; host or cells: H9 cells chronically infected with HIV-1 strain RF (Env is made from the virus in the infected cells, not by transfection)
The experiment in a line: Six-helix bundle (6HB) assay. It counts as cell-based, HIV-1 (strain RF). The method in brief:
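Chronically HIV-1 RF-infected H9 cells (12-40 days post-infection), 2.5×10^5 per well, were preincubated with compound for 30 min at 37 °C. sCD4 at 1 μg/mL was added for 1 h to trigger Env changes. 6HB-specific rabbit serum (1 h, 37 °C) was then added, followed by PE anti-rabbit (45 min, 4 °C), with flow cytometric fluorescence read-out.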

The next assay relates to HIV-1, NL4-3 strain. The assay can be described thus: Virus infection assay (virus entry and single-cycle infection). It counts as cell-based. To be noted: Human immunodeficiency virus 1, NL43, TZM-b1, read-out: Nl4. In a few lines: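 TZM-b1 cells (CD4, CXCR4, CCR5; LTR-driven lacZ/luciferase reporters) were infected with HIV-1 NL4-3 (MOI 0.01) with 80 μg/mL DEAE-dextran in the presence of test compound, 4 h at 37 °C before adding complete medium. Infection was quantified one day post-infection as chemiluminescent β-galactosidase signal.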

T1 sequence (P04579 32-519): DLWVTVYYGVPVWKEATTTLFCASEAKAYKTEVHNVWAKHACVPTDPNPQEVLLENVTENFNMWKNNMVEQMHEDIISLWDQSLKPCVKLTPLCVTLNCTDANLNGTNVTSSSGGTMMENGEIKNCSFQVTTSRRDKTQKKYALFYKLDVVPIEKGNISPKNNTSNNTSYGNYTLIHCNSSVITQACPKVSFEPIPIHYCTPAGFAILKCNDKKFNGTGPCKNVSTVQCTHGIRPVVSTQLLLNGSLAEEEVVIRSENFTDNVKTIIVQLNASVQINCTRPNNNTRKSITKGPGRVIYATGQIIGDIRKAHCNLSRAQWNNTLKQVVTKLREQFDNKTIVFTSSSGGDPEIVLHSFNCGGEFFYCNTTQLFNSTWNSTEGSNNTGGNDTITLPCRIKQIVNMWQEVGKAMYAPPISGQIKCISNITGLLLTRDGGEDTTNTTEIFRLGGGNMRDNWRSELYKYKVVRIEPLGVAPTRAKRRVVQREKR
T1 sequence (P04579 520-865): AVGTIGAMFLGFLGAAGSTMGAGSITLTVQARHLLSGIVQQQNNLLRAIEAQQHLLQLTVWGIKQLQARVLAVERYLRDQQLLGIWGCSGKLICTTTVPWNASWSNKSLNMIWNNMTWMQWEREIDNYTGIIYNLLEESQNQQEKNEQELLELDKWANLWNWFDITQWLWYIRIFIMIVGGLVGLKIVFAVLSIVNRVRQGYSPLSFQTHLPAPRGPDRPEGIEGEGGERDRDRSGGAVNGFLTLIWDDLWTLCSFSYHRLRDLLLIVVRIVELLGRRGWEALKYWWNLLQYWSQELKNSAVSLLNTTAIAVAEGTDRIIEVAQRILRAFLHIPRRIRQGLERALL

Turning to `COc1ccc(-c2nc3c(C(=O)N4CCN(C(CO)c5ccc(OC)cc5OC)C[C@H]4C)cnn3c(C(F)(F)F)c2C)cc1` (stereo partly drawn) [methanone, [(2R)-4-[1-(2,4-dimethoxyphenyl)-2-hydroxyethyl]-2-methyl-1-piperazinyl][5-(4-methoxyphenyl)-6-methyl-7-(trifluoromethyl)pyrazolo[1,5-α]pyrimidin-3-yl]-], the IC50 is below 1 µM in assay [1] and below 1 µM with HIV-1, NL4-3 strain.
In the case of `COc1ccc(-c2nc3c(C(=O)N4CCN(C(CO)c5cc(F)ccc5F)C[C@H]4C)cnn3c(C(F)(F)F)c2C)cc1` (stereo partly drawn) [methanone, [(2R)-4-[1-(2,5-difluorophenyl)-2-hydroxyethyl]-2-methyl-1-piperazinyl][5-(4-methoxyphenyl)-6-methyl-7-(trifluoromethyl)pyrazolo[1,5-α]pyrimidin-3-yl]-], the IC50 in assay [1] was below 1 µM; in the assay with HIV-1, NL4-3 strain, below 1 µM.
As to `COc1ccc(-c2nc3c(C(=O)N4CCN(C(CO)c5cc(OC)ccc5OC)C[C@H]4C)cnn3c(C(F)(F)F)c2C)cc1` (stereo partly drawn) [methanone, [(2R)-4-[1-(2,5-dimethoxyphenyl)-2-hydroxyethyl]-2-methyl-1-piperazinyl][5-(4-methoxyphenyl)-6-methyl-7-(trifluoromethyl)pyrazolo[1,5-α]pyrimidin-3-yl]-], the IC50 in assay [1] is 1.1 to 10 µM; in the assay with HIV-1, NL4-3 strain it was below 1 µM.
Turning to `COc1ccc(-c2nc3c(C(=O)N4CCN(C(CO)c5c(F)ccc(OC)c5F)C[C@H]4C)cnn3c(C(F)(F)F)c2C)cc1` (stereo partly drawn) [methanone, [(2R)-4-[1-(2,6-difluoro-3-methoxyphenyl)-2-hydroxyethyl]-2-methyl-1-piperazinyl][5-(4-methoxyphenyl)-6-methyl-7-(trifluoromethyl)pyrazolo[1,5-α]pyrimidin-3-yl]-], the IC50 in assay [1] was below 1 µM; in the assay with HIV-1, NL4-3 strain, below 1 µM.
As to `COc1ccc(-c2nc3c(C(=O)N4CCN(C(CO)c5c(F)cccc5F)C[C@H]4C)cnn3c(C(F)(F)F)c2C)cc1` (stereo partly drawn) [methanone, [(2R)-4-[1-(2,6-difluorophenyl)-2-hydroxyethyl]-2-methyl-1-piperazinyl][5-(4-methoxyphenyl)-6-methyl-7-(trifluoromethyl)pyrazolo[1,5-α]pyrimidin-3-yl]-], the IC50 was below 1 µM in assay [1] and below 1 µM with HIV-1, NL4-3 strain.
Take `COc1ccc(-c2nc3c(C(=O)N4CCN(C(CO)c5ccc(OC)nc5OC)C[C@H]4C)cnn3c(C(F)(F)F)c2C)cc1` (stereo partly drawn) [methanone, [(2R)-4-[1-(2,6-dimethoxy-3-pyridinyl)-2-hydroxyethyl]-2-methyl-1-piperazinyl][5-(4-methoxyphenyl)-6-methyl-7-(trifluoromethyl)pyrazolo[1,5-α]pyrimidin-3-yl]-]: the IC50 in assay [1] was below 1 µM; in the assay with HIV-1, NL4-3 strain it was below 1 µM.
Regarding `COc1ccc(-c2nc3c(C(=O)N4CCN(C(CO)c5ccccc5N)C[C@H]4C)cnn3c(C(F)(F)F)c2C)cc1` (stereo partly drawn) [methanone, [(2R)-4-[1-(2-aminophenyl)-2-hydroxyethyl]-2-methyl-1-piperazinyl][5-(4-methoxyphenyl)-6-methyl-7-(trifluoromethyl)pyrazolo[1,5-α]pyrimidin-3-yl]-], the IC50 in assay [1] was 1.1 to 10 µM; with HIV-1, NL4-3 strain it was 1.1 to 10 µM.
`COc1ccc(-c2nc3c(C(=O)N4CCN(C(CO)c5cc6ccccc6o5)C[C@H]4C)cnn3c(C(F)(F)F)c2C)cc1` (stereo partly drawn) [methanone, [(2R)-4-[1-(2-benzofuranyl)-2-hydroxyethyl]-2-methyl-1-piperazinyl][5-(4-methoxyphenyl)-6-methyl-7-(trifluoromethyl)pyrazolo[1,5-α]pyrimidin-3-yl]-]: the IC50 was below 1 µM in assay [1] and below 1 µM with HIV-1, NL4-3 strain.
On to `COc1ccc(-c2nc3c(C(=O)N4CCN(C(CO)c5ccccc5Br)C[C@H]4C)cnn3c(C(F)(F)F)c2C)cc1` (stereo partly drawn) [methanone, [(2R)-4-[1-(2-bromophenyl)-2-hydroxyethyl]-2-methyl-1-piperazinyl][5-(4-methoxyphenyl)-6-methyl-7-(trifluoromethyl)pyrazolo[1,5-α]pyrimidin-3-yl]-], for which the IC50 in assay [1] was below 1 µM; in the assay on HIV-1, NL4-3 strain it was below 1 µM.
As to `COc1ccc(-c2nc3c(C(=O)N4CCN(C(CO)c5cccnc5Cl)C[C@H]4C)cnn3c(C(F)(F)F)c2C)cc1` (stereo partly drawn) [methanone, [(2R)-4-[1-(2-chloro-3-pyridinyl)-2-hydroxyethyl]-2-methyl-1-piperazinyl][5-(4-methoxyphenyl)-6-methyl-7-(trifluoromethyl)pyrazolo[1,5-α]pyrimidin-3-yl]-], the IC50 is below 1 µM in assay [1] and below 1 µM in the assay with HIV-1, NL4-3 strain.
As for `COc1ccc(-c2nc3c(C(=O)N4CCN(C(CO)c5ccccc5Cl)C[C@H]4C)cnn3c(C(F)(F)F)c2C)cc1` (stereo partly drawn) [methanone, [(2R)-4-[1-(2-chlorophenyl)-2-hydroxyethyl]-2-methyl-1-piperazinyl][5-(4-methoxyphenyl)-6-methyl-7-(trifluoromethyl)pyrazolo[1,5-α]pyrimidin-3-yl]-], the IC50 was below 1 µM in assay [1] and below 1 µM in the assay on HIV-1, NL4-3 strain.
As for `CCOc1ncccc1C(CO)N1CCN(C(=O)c2cnn3c(C(F)(F)F)c(C)c(-c4ccc(OC)cc4)nc23)[C@H](C)C1` (stereo partly drawn) [methanone, [(2R)-4-[1-(2-ethoxy-3-pyridinyl)-2-hydroxyethyl]-2-methyl-1-piperazinyl][5-(4-methoxyphenyl)-6-methyl-7-(trifluoromethyl)pyrazolo[1,5-α]pyrimidin-3-yl]-], the IC50 was below 1 µM in assay [1] and below 1 µM in the assay with HIV-1, NL4-3 strain.
Take `CCOc1ccccc1C(CO)N1CCN(C(=O)c2cnn3c(C(F)(F)F)c(C)c(-c4ccc(OC)cc4)nc23)[C@H](C)C1` (stereo partly drawn) [methanone, [(2R)-4-[1-(2-ethoxyphenyl)-2-hydroxyethyl]-2-methyl-1-piperazinyl][5-(4-methoxyphenyl)-6-methyl-7-(trifluoromethyl)pyrazolo[1,5-α]pyrimidin-3-yl]-]: the IC50 in assay [1] was below 1 µM; with HIV-1, NL4-3 strain it was below 1 µM.
`COc1ccc(-c2nc3c(C(=O)N4CCN(C(CO)c5cccc(OC)c5F)C[C@H]4C)cnn3c(C(F)(F)F)c2C)cc1` (stereo partly drawn) [methanone, [(2R)-4-[1-(2-fluoro-3-methoxyphenyl)-2-hydroxyethyl]-2-methyl-1-piperazinyl][5-(4-methoxyphenyl)-6-methyl-7-(trifluoromethyl)pyrazolo[1,5-α]pyrimidin-3-yl]-]: the IC50 was below 1 µM in assay [1] and below 1 µM in the assay with HIV-1, NL4-3 strain.
As to `COc1ccc(-c2nc3c(C(=O)N4CCN(C(CO)c5c(F)cccc5OC)C[C@H]4C)cnn3c(C(F)(F)F)c2C)cc1` (stereo partly drawn) [methanone, [(2R)-4-[1-(2-fluoro-6-methoxyphenyl)-2-hydroxyethyl]-2-methyl-1-piperazinyl][5-(4-methoxyphenyl)-6-methyl-7-(trifluoromethyl)pyrazolo[1,5-α]pyrimidin-3-yl]-], the IC50 in assay [1] is below 1 µM; with HIV-1, NL4-3 strain, below 1 µM.
Regarding `COc1ccc(-c2nc3c(C(=O)N4CCN(C(CO)c5ccccc5F)C[C@H]4C)cnn3c(C(F)(F)F)c2C)cc1` (stereo partly drawn) [methanone, [(2R)-4-[1-(2-fluorophenyl)-2-hydroxyethyl]-2-methyl-1-piperazinyl][5-(4-methoxyphenyl)-6-methyl-7-(trifluoromethyl)pyrazolo[1,5-α]pyrimidin-3-yl]-], the IC50 in assay [1] is below 1 µM; with HIV-1, NL4-3 strain, below 1 µM.
As to `COc1ccc(-c2nc3c(C(=O)N4CCN(C(CO)c5ccccc5F)C[C@H]4C)cnn3c(C(F)(F)F)c2C)cn1` (stereo partly drawn) [methanone, [(2R)-4-[1-(2-fluorophenyl)-2-hydroxyethyl]-2-methyl-1-piperazinyl][5-(6-methoxy-3-pyridinyl)-6-methyl-7-(trifluoromethyl)pyrazolo[1,5-α]pyrimidin-3-yl]-], the IC50 is below 1 µM in assay [1] and below 1 µM in the assay on HIV-1, NL4-3 strain.
Consider `COc1ccc(-c2nc3c(C(=O)N4CCN(C(CO)c5ccco5)C[C@H]4C)cnn3c(C(F)(F)F)c2C)cc1` (stereo partly drawn) [methanone, [(2R)-4-[1-(2-furanyl)-2-hydroxyethyl]-2-methyl-1-piperazinyl][5-(4-methoxyphenyl)-6-methyl-7-(trifluoromethyl)pyrazolo[1,5-α]pyrimidin-3-yl]-], for which the IC50 was below 1 µM in assay [1] and below 1 µM in the assay with HIV-1, NL4-3 strain.
In the case of `COc1ccc(-c2nc3c(C(=O)N4CCN(C(CO)c5cc(F)cc(F)c5OC)C[C@H]4C)cnn3c(C(F)(F)F)c2C)cc1` (stereo partly drawn) [methanone, [(2R)-4-[1-(3,5-difluoro-2-methoxyphenyl)-2-hydroxyethyl]-2-methyl-1-piperazinyl][5-(4-methoxyphenyl)-6-methyl-7-(trifluoromethyl)pyrazolo[1,5-α]pyrimidin-3-yl]-], the IC50 is below 1 µM in assay [1] and below 1 µM in the assay on HIV-1, NL4-3 strain.
With `COc1ccc(-c2nc3c(C(=O)N4CCN(C(CO)c5cc(F)cc(F)c5)C[C@H]4C)cnn3c(C(F)(F)F)c2C)cc1` (stereo partly drawn) [methanone, [(2R)-4-[1-(3,5-difluorophenyl)-2-hydroxyethyl]-2-methyl-1-piperazinyl][5-(4-methoxyphenyl)-6-methyl-7-(trifluoromethyl)pyrazolo[1,5-α]pyrimidin-3-yl]-], the IC50 in assay [1] was below 1 µM; with HIV-1, NL4-3 strain, below 1 µM.
In the case of `COc1ccc(-c2nc3c(C(=O)N4CCN(C(CO)c5cccc(N)c5)C[C@H]4C)cnn3c(C(F)(F)F)c2C)cc1` (stereo partly drawn) [methanone, [(2R)-4-[1-(3-aminophenyl)-2-hydroxyethyl]-2-methyl-1-piperazinyl][5-(4-methoxyphenyl)-6-methyl-7-(trifluoromethyl)pyrazolo[1,5-α]pyrimidin-3-yl]-], the IC50 is below 1 µM in assay [1] and below 1 µM in the assay with HIV-1, NL4-3 strain.

(Values after patent publication US20090215778A1, “Alpha-substituted Arylmethyl Piperazine Pyrazolo [1,5-alpha]Pyrimidine Amide Derivatives” (priority 2007, published 2009).)
